From patent US20240197700A1, “Methods and Compositions for Treating Lysosomal Storage Disorders” (Sanford Health, priority 2021, published 2024) come the findings set out here.

“Also recorded” adds a separate entry of the source.

The test system of one assay is NCL MEFs. Description: Autofluorescent storage material (ASM) in Batten disease mouse embryonic fibroblasts. In kind it is cell-based. As to the method: (§1) Specific experimental details are included in figure legends. In general, after collection and preparation, MEFs and PNCs were dosed with vehicle or AF38469 (40 nM, 400 nM. or 4 μM) on DIV3 and DIV5. On DIV7, cells were treated with the following dyes: Hoechst 33342 (1:1000 dilution), LysoTrackerT™ Red DND-99 (1:10,000 dilution), fixed, and imaged. Mice were given vehicle or AF38469 (78.125 μg/ml, 3.125 μg/ml, 0.3125 μg/ml or 0.03125 μg/ml equating approximately to 250 μg/mouse/day, 10 μg/mouse/day, 1 μg/mouse/day, and […], respectively, given a mouse's daily water intake of approximately 3.2 ml per day) in drinking water beginning at wean. Body weight was measured bi-weekly, and a force actimeter test was performed on Cln2^R207X mice at 10 weeks of age. Body weight was measured every month for Cln3^Δex7/8 mice. At 11 and 16 weeks of age, respectively, Cln2^R207X and Cln3^Δex7/8 mice along with age matched wild type control mice were CO2 euthanized and intracardially perfused with PBS. Brains were collected and placed on a 1 mm sagittal brain block. Brains were sliced at the midline and 3 mm right of the midline. One hemisphere was fixed in 4% PFA and sectioned at 50 microns on a vibratome. Immunohistochemistry was performed on free-floating sections. For mitochondrial ATP synthase subunit C (SubC), glial fibrillary acidic protein (GFAP), and cluster of differentiation 68 (CD68) immunolabeling, primary antibodies included anti-SubC (Abcam, ab181243; 1:1000), anti-GFAP (Dako, Z0334; 1:5000), anti-CD68 (AbD Serotec, MCA1957; 1:2000), and secondary antibodies included anti-rabbit biotinylated (Vector Labs, BA-1000 1:1000) and anti-rat (Vector Labs, BA-9400 1:1000). Coverslips were mounted on slides using antifade-mounting media and were stored in the dark before imaging. Sections were imaged and analyzed using an Aperio Digital Pathology Slide Scanner (AT2) and associated software. Images were extracted from S1BF of the somatosensory cortex and the VPM/VPL of the thalamus, with multiple images taken of multiple tissues from each animal.
• An increase in percent area or total area of positive autofluorescent storage material (ASM) signal in untreated NCL MEFs or PNCs relative to age-matched, wild type MEFs or PNCs is considered an increase in the accumulation of autofluorescent storage material, reflecting disease-related lysosomal dysfunction. • A decrease in percent area or total area of positive autofluorescent storage material signal in AF38469 treated MEFs and PNCs relative to age-matched, vehicle treated MEFs and PNCs is considered a reduction in the accumulation of autofluorescent storage material and thus a decrease in disease-related lysosomal dysfunction. • LysoTracker™ is an acidophilic dye that labels lysosomes and accumulation increases with an increase in lysosome size or number. Cell and mouse models of lysosomal storage disorders often have increased accumulation of lysosomes and therefore have a stronger LysoTracker™ signal. […]

The subject of a further assay is Cln3^Δex7/8 mice. As to the kind of experiment: Microglial activation (CD68) in brain of Cln3^Δex7/8 mice. In kind it is in vivo, mouse. As to conditions: for microglial activation (CD68): VPM/VPL of the thalamus and somatosensory cortex. As to the method: FIG. 22(A-B). Short-term chronic treatment with semaglutide impacts glial activation in Cln3^Δex7/8 mice. Beginning at wean, wild type and Cln3^Δex7/8 mice were treated with vehicle or semaglutide 2.571 μg/mouse, 25.71 μg/mouse) through subcutaneous injections three times a week until sacrifice at 16 weeks. Upon sacrifice, a hemisphere of the brain was sectioned at 50 microns on a vibratome; DAB staining immunohistochemistry was then performed using anti-GFAP (Dako, Z0334; 1:5000), anti-CD68 (AbD Serotec, MCA1957; 1:2000), anti-rabbit biotinylated (Vector Labs, BA-1000 1:1000), and anti-rat (Vector Labs, BA-9400 1:1000). Sections were imaged and analyzed using an Aperio Digital Pathology Slide Scanner (AT2) and associated software. Images were extracted from S1BF of the somatosensory cortex, the CA3 of the hippocampus, and the VPM/VPL of the thalamus, key brain regions for Batten disease pathology. Percent area of immunoreactivity were quantified using a threshold analysis in ImageJ™. Statistical analyses were performed using GraphPad Prism™ (v8.4.3; San Diego, CA). […] Increasing concentrations of semaglutide and corresponding genotypes are shown along the x-axis. Nested one-way ANOVA. Mean±S.E.M. Sidak's multiple comparisons test. Compared to the wild type vehicle treated group #p<0.05, ##p<0.01, ###p<0.001, ####p<0.0001. Compared to mutant vehicle treated group *p<0.05, **p<0.01, ***p<0.001, ****p<0.0001.
as §1
Short-term chronic treatment with AF38469 impacts glial activation in Cln3^Δex7/8 mice. Beginning at wean, wild type and Cln3^Δex7/8 mice were treated with vehicle (0.2408% DMSO) or AF38469 (0.03125 μg/ml, 0.3125 μg/ml, 3.125 μg/ml, 78.125 μg/ml) continuously through the drinking water continuing until sacrifice at 16 weeks. […]

Turning to `Cc1cccc(NC(=O)c2ccc(C(F)(F)F)cc2C(=O)O)n1` [AF38469, 2-((6-methylpyridin-2-yl)carbamoyl)-5-(trifluoromethyl)benzoic acid], the “accumulation of autofluorescent storage material (ASM)” value (from here on “accumulation … (ASM)”) with NCL MEFs (40 nM, 400 nM, 4 μM, Cln1^R151X, Cln2^R207X, Cln3^Δex7/8, Cln6^nclf, Cln8^mnd MEFs, DIV7) is given as “significantly reduced”; in the assay with NCL MEFs (Cln11^−/− MEFs, DIV7) it was “did not have an impact”. Besides, the “microglial activation (CD68)” value was “increased or had no impact; also recorded: had no impact” in the assay with Cln3^Δex7/8 mice (AF38469 higher doses 3.125 μg/ml, 78.125 μg/ml); “significantly and potently decreased” in the assay on Cln3^Δex7/8 mice (AF38469 lower doses 0.03125 μg/ml, 0.3125 μg/ml).
As for `CC[C@H](C)[C@H](N)C(=O)NCCN1CCOCC1` [LM11A-31, N-[2-(morpholin-4-yl)ethyl]-L-isoleucinamide], the “accumulation … (ASM)” value in the assay on NCL MEFs (LM11A-31 100 nM, 1 μM, 10 μM, Cln1^R151X, Cln6^nclf, Cln8^mnd MEFs, DIV7) is given as “did not reduce”; with NCL MEFs (LM11A-31 (mid to high doses), Cln2^R207X and Cln3^Δex4/8 (so in the source) MEFs), “trended towards reductions; also recorded: decreasing trend”. In addition, the “microglial activation (CD68)” value with Cln3^Δex7/8 mice (LM11A-31 0.6 mg/mL) is “had no impact”. In the assay with Cln3^Δex7/8 mice (LM11A-31 0.6 mg/mL, thalamus), the “levels of CD68” value is recorded as “trends towards decreased levels”.
Take semaglutide: in the assay on NCL MEFs (semaglutide 10 nM, 100 nM, 1 μM, Cln1^R151X, Cln2^R207X, Cln3^Δex7/8, Cln6^nclf, Cln8^mnd MEFs), the “accumulation … (ASM)” value is given as “had no impact”. Further, the “accumulation of microgliosis (CD68)” value with Cln3^Δex7/8 mice (semaglutide 2.571 μg/mouse, 25.71 μg/mouse s.c., S1BF, CA3, VPM/VPL, vs vehicle Cln3^Δex7/8) is “had no significant effect”. In addition, the CD68 immunoreactivity entry in the assay on Cln3^Δex7/8 mice (semaglutide lower dose 2.571 μg/mouse s.c., S1BF, CA3, VPM/VPL, relative to wild type) was “reduced CD68 immunoreactivity to levels indistinguishable from wild type; also recorded: restored CD68 immunoreactivity to wild type levels”.
